Results on twelve compounds are retold here after ChEMBL document CHEMBL4396865, “Current advances of triazole alcohols derived from fluconazole: Design, in vitro and in silico studies” (2019).

Values after ≈ are worked out from the molar mass of the structure shown.

What all share (type): functional
For test [1], the system named is Candida parapsilosis. Kind of test: Antifungal activity against fluconalzole-susceptible Candida parapsilosis after 24 hrs. To be noted: Lodderomyces parapsilosis.
Test [2] has as its system Candida albicans. Kind of test: Antifungal activity against fluconalzole-susceptible Candida albicans after 24 hrs.
Test [3] relates to Trichophyton rubrum. Nature of the test: Antifungal activity against Trichophyton rubrum after 24 hrs by microbroth dilution method. (In general: Broth dilution looks for growth in wells or tubes with falling amounts of substance.)
Test [4] deals with Aspergillus fumigatus. Nature of the test: Antifungal activity against Aspergillus fumigatus after 24 hrs by microbroth dilution method.
Test [5] relates to Microsporum canis. Nature of the test: Antifungal activity against Microsporum canis after 24 hrs by microbroth dilution method.
Test [6] deals with Cryptococcus neoformans. Nature of the test: Potency index, ratio of fluconazole MIC to test compound MIC for activity against Cryptococcus neoformans ATCC 32609.
The test system of test [7] is Fonsecaea compacta. Kind of test: Antifungal activity against Fonsecaea compacta after 24 hrs by microbroth dilution method.
Test [8] concerns Aspergillus fumigatus. Kind of test: Potency index, ratio of fluconazole MIC to test compound MIC for Aspergillus fumigatus.
The test system of test [9] is Microsporum canis. Nature of the test: Potency index, ratio of fluconazole MIC to test compound MIC for Microsporum canis.
For test [10], the system named is Trichophyton rubrum. Nature of the test: Potency index, ratio of fluconazole MIC to test compound MIC for Trichophyton rubrum.
The subject of test [11] is Fonsecaea compacta. Nature of the test: Potency index, ratio of fluconazole MIC to test compound MIC for Fonsecaea compacta.
The test system of test [12] is Candida albicans. Nature of the test: Potency index, ratio of fluconazole MIC to test compound MIC for Candida albicans ATCC 76615.
Test [13] relates to Candida tropicalis. Nature of the test: Antifungal activity against Candida tropicalis after 24 hrs by microbroth dilution method.
For test [14], the system named is Candida tropicalis. Kind of test: Potency index, ratio of fluconazole MIC to test compound MIC for Candida tropicalis.
In test [15] the test system is Candida parapsilosis. Kind of test: Antifungal activity against Candida parapsilosis. To be noted: Lodderomyces parapsilosis.
Test [16] relates to Candida albicans. Kind of test: Antifungal activity against Candida albicans. To be noted: Candida albicans.
For another test, the system named is Pichia kudriavzevii. Kind of test: Antifungal activity against Candida krusei.
Test [17] has as its system Cryptococcus neoformans. Kind of test: Antifungal activity against Cryptococcus neoformans. To be noted: Cryptococcus neoformans.
Test [18] has as its system Candida tropicalis. Nature of the test: Antifungal activity against Candida tropicalis. As to conditions: Candida tropicalis.

Turning to `OC(Cn1cncn1)(Cn1cnc(SCc2ccc(F)cc2)n1)c1ccc(F)cc1F` (configuration not stated), the MIC against Candida parapsilosis [1] and in the test with Candida albicans [2] was 0.063 to 1 µg/mL (≈ 0.141 to 2.24 µM) throughout.
For `OC(Cn1cncn1)(Cn1cnc(SCc2ccc(Br)cc2)n1)c1ccc(F)cc1F` (configuration not stated), the MIC in the test with Candida parapsilosis [1] and against Candida albicans [2] was 0.063 to 1 µg/mL (≈ 0.124 to 1.97 µM) each time.
Turning to `OC(Cn1cncn1)(Cn1cnc(SCc2ccccc2)n1)c1ccc(F)cc1F` (configuration not stated), the MIC in the test with Candida parapsilosis [1] and in the test with Candida albicans [2] was 0.063 to 1 µg/mL (≈ 0.147 to 2.33 µM) in each case.
With `Cc1ccc(CN(CC(O)(Cn2cncn2)c2ccc(F)cc2F)C2CC2)cc1` (configuration not stated), the MIC80 in the test on Trichophyton rubrum [3], against Aspergillus fumigatus [4], against Microsporum canis [5], against Fonsecaea compacta [7] and in the test with Candida tropicalis [13] was 0.125 µg/mL (≈ 0.314 µM) in each case. Besides, the Ratio with Cryptococcus neoformans [6], in the test with Aspergillus fumigatus [8], in the test with Microsporum canis [9], in the test with Trichophyton rubrum [10], in the test on Fonsecaea compacta [11] and with Candida albicans [12] was 4 throughout. For the same compound, in the test with Candida tropicalis [14], the Ratio amounted to 4.
Turning to `OC(Cn1cncn1)(Cn1cnc(SCc2ccc(Cl)c(Cl)c2)n1)c1ccc(F)cc1F` (configuration not stated), the MIC in the test on Candida parapsilosis [1] and with Candida albicans [2] was 0.063 to 1 µg/mL (≈ 0.127 to 2.01 µM) each time.
Consider `OC(CN(Cc1ccc(F)cc1F)C1CC1)(Cn1cncn1)c1ccc(F)cc1F` (configuration not stated), for which the MIC80 with Trichophyton rubrum [3], against Aspergillus fumigatus [4], in the test with Microsporum canis [5], against Fonsecaea compacta [7] and in the test with Candida tropicalis [13] was 0.125 µg/mL (≈ 0.297 µM) in each case. The Ratio in the test on Cryptococcus neoformans [6], with Aspergillus fumigatus [8], with Microsporum canis [9], in the test with Trichophyton rubrum [10], in the test on Fonsecaea compacta [11] and with Candida albicans [12] was 4 throughout. Moreover, the Ratio with Candida tropicalis [14] turned out to be 4.
As to `OC(CN(Cc1ccc(Br)cc1)C1CC1)(Cn1cncn1)c1ccc(F)cc1F` (configuration not stated), the MIC80 in the test on Trichophyton rubrum [3], in the test with Aspergillus fumigatus [4], in the test on Microsporum canis [5], against Fonsecaea compacta [7] and against Candida tropicalis [13] was 0.125 µg/mL (≈ 0.27 µM) throughout. In addition, the Ratio with Cryptococcus neoformans [6], with Aspergillus fumigatus [8], with Microsporum canis [9], in the test with Trichophyton rubrum [10], in the test with Fonsecaea compacta [11] and in the test with Candida albicans [12] was 4 each time. In the test on Candida tropicalis [14], the Ratio is 4.
With `Cc1ccc(NC(=O)CN(C)CC(O)(Cn2cncn2)c2ccc(F)cc2F)cc1` (configuration not stated), the MIC80 (as a rule, an inhibitory concentration at the 80% level, which refers to growth in some studies and to a panel of isolates in others) is 0.25 to 1 µg/mL (≈ 0.602 to 2.41 µM) in the test with Candida parapsilosis [15]; 0.0156 µg/mL (≈ 0.0376 µM) in the test with Candida albicans [16]; 0.25 to 1 µg/mL (≈ 0.602 to 2.41 µM) in the test on Pichia kudriavzevii; 0.0156 µg/mL (≈ 0.0376 µM) with Cryptococcus neoformans [17]; 0.25 to 1 µg/mL (≈ 0.602 to 2.41 µM) in the test with Candida tropicalis [18].
As for `OC(Cn1cncn1)(Cn1cnc(SCc2ccccc2F)n1)c1ccc(F)cc1F` (configuration not stated), the MIC against Candida parapsilosis [1] and in the test with Candida albicans [2] was 0.063 to 1 µg/mL (≈ 0.141 to 2.24 µM) throughout.
As to `O=[N+]([O-])c1ccc(CSc2ncn(CC(O)(Cn3cncn3)c3ccc(F)cc3F)n2)cc1` (configuration not stated), the MIC against Candida parapsilosis [1] and against Candida albicans [2] was 0.063 to 1 µg/mL (≈ 0.133 to 2.11 µM) in each case.
Regarding `OC(Cn1cncn1)(Cn1cnc(SCc2cccc(F)c2)n1)c1ccc(F)cc1F` (configuration not stated), the MIC against Candida parapsilosis [1] and against Candida albicans [2] was 0.063 to 1 µg/mL (≈ 0.141 to 2.24 µM) each time.
`Cc1ccccc1CN(CC(O)(Cn1cncn1)c1ccc(F)cc1F)C1CC1` (configuration not stated): the MIC80 with Trichophyton rubrum [3], in the test with Aspergillus fumigatus [4], against Microsporum canis [5], in the test with Fonsecaea compacta [7] and with Candida tropicalis [13] was 0.125 µg/mL (≈ 0.314 µM) each time. The Ratio with Cryptococcus neoformans [6], in the test with Aspergillus fumigatus [8], in the test on Microsporum canis [9], with Trichophyton rubrum [10], with Fonsecaea compacta [11] and in the test on Candida albicans [12] was 4 each time. Moreover, in the test with Candida tropicalis [14], the Ratio stood at 4.
